Biological target: ceDCR-1/DRH-1/RDE-4 (Caenorhabditis elegans, UniProt G5EDI8)
Conditions: 5 mM ATP, BLT 42-bp dsRNA with deoxynucleotides

Sequence of ceDCR-1/DRH-1/RDE-4 (G5EDI8 1-1037): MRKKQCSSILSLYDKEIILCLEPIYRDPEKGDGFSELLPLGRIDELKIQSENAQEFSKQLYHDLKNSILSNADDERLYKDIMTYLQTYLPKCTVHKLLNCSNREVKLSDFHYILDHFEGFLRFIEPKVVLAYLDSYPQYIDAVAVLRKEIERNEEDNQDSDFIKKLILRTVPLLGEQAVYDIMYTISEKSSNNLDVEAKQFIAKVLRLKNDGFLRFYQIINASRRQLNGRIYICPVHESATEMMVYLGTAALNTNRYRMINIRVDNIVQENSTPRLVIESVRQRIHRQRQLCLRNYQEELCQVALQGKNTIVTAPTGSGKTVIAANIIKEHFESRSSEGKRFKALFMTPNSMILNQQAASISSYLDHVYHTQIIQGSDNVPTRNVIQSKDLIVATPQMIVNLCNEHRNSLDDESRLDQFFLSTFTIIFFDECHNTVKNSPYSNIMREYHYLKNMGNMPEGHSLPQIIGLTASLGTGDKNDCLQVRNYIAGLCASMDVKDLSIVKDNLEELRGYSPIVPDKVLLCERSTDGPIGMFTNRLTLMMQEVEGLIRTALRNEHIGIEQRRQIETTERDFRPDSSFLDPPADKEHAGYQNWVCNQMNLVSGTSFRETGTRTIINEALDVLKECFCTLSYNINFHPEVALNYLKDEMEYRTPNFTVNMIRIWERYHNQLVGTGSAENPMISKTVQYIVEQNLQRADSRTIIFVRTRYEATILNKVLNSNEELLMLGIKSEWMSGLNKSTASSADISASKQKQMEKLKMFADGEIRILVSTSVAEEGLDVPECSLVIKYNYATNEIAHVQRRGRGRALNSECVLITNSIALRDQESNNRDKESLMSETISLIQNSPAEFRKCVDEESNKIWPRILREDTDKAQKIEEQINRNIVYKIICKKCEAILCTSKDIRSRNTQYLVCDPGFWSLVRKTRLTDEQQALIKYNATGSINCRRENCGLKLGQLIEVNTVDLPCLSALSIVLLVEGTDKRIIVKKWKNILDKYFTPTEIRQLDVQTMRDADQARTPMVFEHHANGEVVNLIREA
Sequence of ceDCR-1/DRH-1/RDE-4 (P34529 whole entry partner): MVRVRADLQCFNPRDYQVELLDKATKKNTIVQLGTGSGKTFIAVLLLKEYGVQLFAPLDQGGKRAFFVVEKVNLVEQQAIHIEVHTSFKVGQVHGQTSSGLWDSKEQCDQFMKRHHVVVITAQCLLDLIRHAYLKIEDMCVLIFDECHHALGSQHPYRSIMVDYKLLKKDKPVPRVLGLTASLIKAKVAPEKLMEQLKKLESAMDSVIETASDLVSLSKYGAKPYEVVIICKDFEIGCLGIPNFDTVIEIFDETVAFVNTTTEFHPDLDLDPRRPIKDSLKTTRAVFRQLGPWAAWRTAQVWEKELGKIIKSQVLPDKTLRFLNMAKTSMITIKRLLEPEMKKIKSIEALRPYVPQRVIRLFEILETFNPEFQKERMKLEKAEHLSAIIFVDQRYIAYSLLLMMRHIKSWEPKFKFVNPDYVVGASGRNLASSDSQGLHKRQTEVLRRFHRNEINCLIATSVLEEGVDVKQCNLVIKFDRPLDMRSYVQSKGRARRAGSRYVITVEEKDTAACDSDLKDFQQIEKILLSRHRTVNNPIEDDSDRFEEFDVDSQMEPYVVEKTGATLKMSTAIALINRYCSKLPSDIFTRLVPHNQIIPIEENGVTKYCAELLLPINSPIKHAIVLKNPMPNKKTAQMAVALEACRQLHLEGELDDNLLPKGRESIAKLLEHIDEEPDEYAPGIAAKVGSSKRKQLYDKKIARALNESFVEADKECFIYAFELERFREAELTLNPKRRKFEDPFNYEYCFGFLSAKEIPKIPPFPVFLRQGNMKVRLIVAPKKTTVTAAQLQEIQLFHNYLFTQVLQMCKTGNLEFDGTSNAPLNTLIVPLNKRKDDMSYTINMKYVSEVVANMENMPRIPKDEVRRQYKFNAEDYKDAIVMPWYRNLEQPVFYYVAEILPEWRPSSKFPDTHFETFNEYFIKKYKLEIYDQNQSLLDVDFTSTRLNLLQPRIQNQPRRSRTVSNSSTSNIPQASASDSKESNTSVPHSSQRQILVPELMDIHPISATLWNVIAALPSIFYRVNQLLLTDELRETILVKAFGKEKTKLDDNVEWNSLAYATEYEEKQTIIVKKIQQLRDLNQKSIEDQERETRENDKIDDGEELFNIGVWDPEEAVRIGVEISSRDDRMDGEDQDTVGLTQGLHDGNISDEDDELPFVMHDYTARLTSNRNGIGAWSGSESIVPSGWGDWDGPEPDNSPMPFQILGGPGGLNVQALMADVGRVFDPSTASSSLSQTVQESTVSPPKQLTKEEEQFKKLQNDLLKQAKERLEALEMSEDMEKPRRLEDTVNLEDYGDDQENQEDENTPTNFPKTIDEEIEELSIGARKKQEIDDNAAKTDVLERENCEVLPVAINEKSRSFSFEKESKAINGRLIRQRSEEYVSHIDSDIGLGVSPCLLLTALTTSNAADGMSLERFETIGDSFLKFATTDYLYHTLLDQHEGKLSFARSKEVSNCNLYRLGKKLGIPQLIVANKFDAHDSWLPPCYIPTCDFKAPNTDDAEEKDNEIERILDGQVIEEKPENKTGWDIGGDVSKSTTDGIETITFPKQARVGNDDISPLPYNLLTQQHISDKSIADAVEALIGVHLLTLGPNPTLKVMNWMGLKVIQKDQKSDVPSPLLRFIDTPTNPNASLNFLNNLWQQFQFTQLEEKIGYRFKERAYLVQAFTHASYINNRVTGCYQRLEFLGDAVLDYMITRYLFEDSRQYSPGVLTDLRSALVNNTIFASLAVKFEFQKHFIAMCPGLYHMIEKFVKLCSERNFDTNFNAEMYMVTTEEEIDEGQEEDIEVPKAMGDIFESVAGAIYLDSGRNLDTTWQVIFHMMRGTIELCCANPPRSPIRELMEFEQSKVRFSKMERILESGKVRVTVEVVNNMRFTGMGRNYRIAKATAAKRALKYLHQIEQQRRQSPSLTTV
Sequence of ceDCR-1/DRH-1/RDE-4 (G5EBF5 1-385 partner): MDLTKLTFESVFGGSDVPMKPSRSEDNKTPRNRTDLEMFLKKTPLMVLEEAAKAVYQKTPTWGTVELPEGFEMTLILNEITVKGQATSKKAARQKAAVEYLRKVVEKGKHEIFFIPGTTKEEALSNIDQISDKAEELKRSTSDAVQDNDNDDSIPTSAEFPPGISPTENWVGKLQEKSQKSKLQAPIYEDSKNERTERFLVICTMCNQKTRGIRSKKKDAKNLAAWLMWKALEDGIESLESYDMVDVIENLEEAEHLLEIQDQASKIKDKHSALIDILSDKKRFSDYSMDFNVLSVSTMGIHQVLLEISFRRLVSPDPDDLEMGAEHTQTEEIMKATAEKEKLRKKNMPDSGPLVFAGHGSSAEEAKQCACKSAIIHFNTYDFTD

Nc1ncnc2c1ncn2[C@@H]1O[C@H](COP(=O)(O)OP(=O)(O)OP(=O)(O)O)[C@@H](O)[C@H]1O [ATP]
streptavidin-displacement (ATP-dependent translocation): Wildtype C. elegans antiviral complex showed ATP-dependent streptavidin displacement on this substrate
